Experimental data reported in the supplement of paper PMC9663587.

Tests used:
Volasertib/BI6727 [1] = compound: T1, CC[C@@H]1C(=O)N(C)c2cnc(Nc3ccc(C(=O)N[C@H]4CC[C@H](N5CCN(CC6CC6)CC5)CC4)cc3OC)nc2N1C(C)C [Volasertib/BI6727]; test: increase in dead-cell fraction, 72 h; higher = more death;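 note: breast cancer cell lines in 384-well plates, stained with Hoechst plus LIVE/DEAD far red dye and imaged, cells above an LDR intensity threshold counted dead, Hoechst-negative corpses included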
AZD2014 = compound: CNC(=O)c1cccc(-c2ccc3c(N4CCOC[C@@H]4C)nc(N4CCOC[C@@H]4C)nc3n2)c1 [AZD2014]; test: as above
Dasatinib = compound: Cc1nc(Nc2ncc(C(=O)Nc3c(C)cccc3Cl)s2)cc(N2CCN(CCO)CC2)n1 [Dasatinib]; test: as above
TGX221 = compound: CC1=CN2C(=O)C=C(N=C2C(=C1)C(C)NC3=CC=CC=C3)N4CCOCC4 [TGX221]; test: GR value, 72 h; higher = faster growth (1 = untreated, <0 = killing);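 note: breast cancer and non-malignant breast epithelial lines, nine half-log doses, viable cells counted by Hoechst and LIVE/DEAD dye imaging versus time-zero plates and DMSO controls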
[2] = compound: CCC1=CN=CN=C1N2CCN(CC2)CC3=NC4=C(N3)C=C(C=C4)C(F)(F)F; test: as above
Volasertib/BI6727 [3] = compound: T1, Volasertib/BI6727; test: as above
BSJ-01-175 = compound: CN(C)C/C=C/C(=O)Nc1ccc(O[C@@H]2CCC[C@@H](Nc3ncc(Cl)c(-c4c[nH]c5ccccc45)n3)C2)cc1 [BSJ-01-175]; test: as above
FMF-03-146-1 = compound: CN1CCN(CC1)C2=CC(=C(C=C2)NC3=NC=C4C(=N3)N(C5=CC=CC=C5C(=O)N4CC(F)(F)F)C)OC [FMF-03-146-1]; test: as above
Saracatinib/AZD0530 = compound: CN1CCN(CCOc2cc(OC3CCOCC3)c3c(Nc4c(Cl)ccc5c4OCO5)ncnc3c2)CC1 [Saracatinib/AZD0530]; test: as above
Doxorubicin = compound: COc1cccc2c1C(=O)c1c(O)c3c(c(O)c1C2=O)C[C@@](O)(C(=O)CO)C[C@@H]3O[C@H]1C[C@H](N)[C@H](O)[C@H](C)O1 [Doxorubicin]; test: as above
Alpelisib/BYL719 = compound: Cc1nc(NC(=O)N2CCC[C@H]2C(N)=O)sc1-c1ccnc(C(C)(C)C(F)(F)F)c1 [Alpelisib/BYL719]; test: as above
Vorinostat = compound: O=C(CCCCCCC(=O)Nc1ccccc1)NO [Vorinostat]; test: as above

AU565
increase in dead-cell fraction (Volasertib/BI6727 [1]; 0.0001 µM): -0.0025
increase in dead-cell fraction (Volasertib/BI6727 [1]; 0.0003162 µM): 0.0017
increase in dead-cell fraction (Volasertib/BI6727 [1]; 0.001 µM): -0.0005
increase in dead-cell fraction (Volasertib/BI6727 [1]; 0.003162 µM): 0.0085
increase in dead-cell fraction (Volasertib/BI6727 [1]; 0.01 µM): 0.284
increase in dead-cell fraction (Volasertib/BI6727 [1]; 0.03162 µM): 0.353
increase in dead-cell fraction (Volasertib/BI6727 [1]; 0.1 µM): 0.412
increase in dead-cell fraction (Volasertib/BI6727 [1]; 0.3162 µM): 0.353
increase in dead-cell fraction (Volasertib/BI6727 [1]; 1 µM): 0.152
increase in dead-cell fraction (AZD2014; 0.001 µM): 0.0342
increase in dead-cell fraction (AZD2014; 0.003162 µM): 0.0014
increase in dead-cell fraction (AZD2014; 0.01 µM): 0.032
increase in dead-cell fraction (AZD2014; 0.03162 µM): 0.0412
increase in dead-cell fraction (AZD2014; 0.1 µM): 0.0311
increase in dead-cell fraction (AZD2014; 0.3162 µM): 0.107
increase in dead-cell fraction (AZD2014; 1 µM): 0.0854
increase in dead-cell fraction (AZD2014; 3.162 µM): 0.0584
increase in dead-cell fraction (AZD2014; 10 µM): 0.126
increase in dead-cell fraction (Dasatinib; 0.001 µM): 0.0065
increase in dead-cell fraction (Dasatinib; 0.003162 µM): 0.0017
increase in dead-cell fraction (Dasatinib; 0.01 µM): 0.0035
increase in dead-cell fraction (Dasatinib; 0.03162 µM): -0.0007
increase in dead-cell fraction (Dasatinib; 0.1 µM): -0.003
increase in dead-cell fraction (Dasatinib; 0.3162 µM): 0.0019
increase in dead-cell fraction (Dasatinib; 1 µM): -0.0024
increase in dead-cell fraction (Dasatinib; 3.162 µM): 0.0091
increase in dead-cell fraction (Dasatinib; 10 µM): 0.0365
GR value (TGX221; 0.001 µM): 0.923 GR
GR value (TGX221; 0.003162 µM): 0.912 GR
GR value (TGX221; 0.01 µM): 0.868 GR
GR value (TGX221; 0.03162 µM): 0.964 GR
GR value (TGX221; 0.1 µM): 0.916 GR
GR value (TGX221; 0.3162 µM): 0.889 GR
GR value (TGX221; 1 µM): 0.919 GR
GR value (TGX221; 3.162 µM): 0.852 GR
GR value (TGX221; 10 µM): 0.58 GR
GR value ([2]; 0.001 µM): 1.03 GR
GR value ([2]; 0.003162 µM): 1.08 GR
GR value ([2]; 0.01 µM): 1.01 GR
GR value ([2]; 0.03162 µM): 1.09 GR
GR value ([2]; 0.1 µM): 0.997 GR
GR value ([2]; 0.3162 µM): 0.985 GR
GR value ([2]; 1 µM): 0.932 GR
GR value ([2]; 3.162 µM): 0.808 GR
GR value ([2]; 10 µM): 0.486 GR
GR value (Volasertib/BI6727 [3]; 0.0001 µM): 1.07 GR
GR value (Volasertib/BI6727 [3]; 0.0003162 µM): 0.998 GR
GR value (Volasertib/BI6727 [3]; 0.001 µM): 0.912 GR
GR value (Volasertib/BI6727 [3]; 0.003162 µM): 0.756 GR
GR value (Volasertib/BI6727 [3]; 0.01 µM): -0.409 GR
GR value (Volasertib/BI6727 [3]; 0.03162 µM): -0.516 GR
GR value (Volasertib/BI6727 [3]; 0.1 µM): -0.458 GR
GR value (Volasertib/BI6727 [3]; 0.3162 µM): -0.455 GR
GR value (Volasertib/BI6727 [3]; 1 µM): -0.206 GR
GR value (BSJ-01-175; 0.001 µM): 0.954 GR
GR value (BSJ-01-175; 0.003162 µM): 0.82 GR
GR value (BSJ-01-175; 0.01 µM): 0.24 GR
GR value (BSJ-01-175; 0.03162 µM): -0.144 GR
GR value (BSJ-01-175; 0.1 µM): -0.164 GR
GR value (BSJ-01-175; 0.3162 µM): -0.381 GR
GR value (BSJ-01-175; 1 µM): -0.45 GR
GR value (BSJ-01-175; 3.162 µM): -0.505 GR
GR value (BSJ-01-175; 10 µM): -0.777 GR
GR value (FMF-03-146-1; 0.001 µM): 0.955 GR
GR value (FMF-03-146-1; 0.003162 µM): 1.02 GR
GR value (FMF-03-146-1; 0.01 µM): 1.03 GR
GR value (FMF-03-146-1; 0.03162 µM): 1 GR
GR value (FMF-03-146-1; 0.1 µM): 0.928 GR
GR value (FMF-03-146-1; 0.3162 µM): 0.924 GR
GR value (FMF-03-146-1; 1 µM): 0.874 GR
GR value (FMF-03-146-1; 3.162 µM): 0.894 GR
GR value (FMF-03-146-1; 10 µM): 0.695 GR
GR value (Saracatinib/AZD0530; 0.001 µM): 1 GR
GR value (Saracatinib/AZD0530; 0.003162 µM): 1.03 GR
GR value (Saracatinib/AZD0530; 0.01 µM): 0.984 GR
GR value (Saracatinib/AZD0530; 0.03162 µM): 1.03 GR
GR value (Saracatinib/AZD0530; 0.1 µM): 0.952 GR
GR value (Saracatinib/AZD0530; 0.3162 µM): 0.942 GR
GR value (Saracatinib/AZD0530; 1 µM): 0.86 GR
GR value (Saracatinib/AZD0530; 3.162 µM): 0.671 GR
GR value (Saracatinib/AZD0530; 10 µM): 0.162 GR
GR value (Doxorubicin; 0.0003162 µM): 1.09 GR
GR value (Doxorubicin; 0.001 µM): 1.03 GR
GR value (Doxorubicin; 0.003162 µM): 1.05 GR
GR value (Doxorubicin; 0.01 µM): 1.01 GR
GR value (Doxorubicin; 0.03162 µM): 0.553 GR
GR value (Doxorubicin; 0.1 µM): -0.11 GR
GR value (Doxorubicin; 0.3162 µM): -0.234 GR
GR value (Doxorubicin; 1 µM): -0.385 GR
GR value (Doxorubicin; 3.162 µM): -0.452 GR
GR value (Alpelisib/BYL719; 0.001 µM): 0.962 GR
GR value (Alpelisib/BYL719; 0.003162 µM): 1.06 GR
GR value (Alpelisib/BYL719; 0.01 µM): 0.931 GR
GR value (Alpelisib/BYL719; 0.03162 µM): 0.762 GR
GR value (Alpelisib/BYL719; 0.1 µM): 0.621 GR
GR value (Alpelisib/BYL719; 0.3162 µM): 0.504 GR
GR value (Alpelisib/BYL719; 1 µM): 0.215 GR
GR value (Alpelisib/BYL719; 3.162 µM): -0.0201 GR
GR value (Alpelisib/BYL719; 10 µM): -0.464 GR
GR value (Vorinostat; 0.001 µM): 0.865 GR
GR value (Vorinostat; 0.003162 µM): 0.936 GR
GR value (Vorinostat; 0.01 µM): 1.02 GR
GR value (Vorinostat; 0.03162 µM): 0.999 GR
GR value (Vorinostat; 0.1 µM): 1.06 GR
GR value (Vorinostat; 0.3162 µM): 0.941 GR
GR value (Vorinostat; 1 µM): 0.551 GR
GR value (Vorinostat; 3.162 µM): -0.345 GR
GR value (Vorinostat; 10 µM): -0.448 GR
